Results from patent US20120237567A1, “MODULATING LYMPHATIC FUNCTION” (THE GENERAL HOSPITAL CORPORATION, priority 2004, published 2012).

Legend:
[1] = system: mouse tail lymphatic network (initial lymphatics); assay: Mouse tail microlymphangiography with residence time distribution (RTD) analysis of lymphatic function; format: in vivo, mice (C57BL/6); details: for overall lymphatic fluid velocity in the dermal lymphatic network: collecting lymphatics not ligated
Experimental: Studies were carried out in 7-10 week old female C57BL/6 and nude mice. Forty-eight mice were used for these experiments: sixteen for the inhibition experiments, fifteen for the ligation experiment, and seventeen additional controls. All procedures were carried out following the guidelines of the Institutional Animal Care and Use Committee of the Massachusetts General Hospital.
Mice in the experimental groups 5 and 6 underwent ligation of the deep collecting lymphatic vessels of the tail immediately before the microlymphangiography, to avoid development of edema (FIG. 1). Mice were anesthetized intramuscularly (90 mg/kg Ketamine and 9 mg/kg Xylazine) and placed on a heated surgical microscopy table. The translucent deep collecting lymphatic vessels were separated from the tail veins with microsurgical forceps through small, bilateral incisions in the axial direction, and ligated with a 10-O non-absorbable suture (Prolene, Ethicon, N.J., United States). The incision site was closed with surgical glue, taking care to avoid circumferential tension on the tail that could interfere with superficial lymphatic function.
Fluorescence intensity measurements were carried out using RTD analysis as described previously (Swartz et al., Am J Physiol. 1996, 270:H324-H329). Briefly, mice were anesthetized intramuscularly (90 mg/kg Ketamine and 9 mg/kg Xylazine) and placed on a small plate. 2.5% FITC-dextran (MW=2 million; Sigma, St. Louis, Mo.) in PBS was infused into the interstitial tissue of the tail tip, with a constant pressure of 40 cm H2O via a 30-gauge needle. […] The mouse was transferred to an epifluorescence microscopy setup as described previously (Leu et al., Am J Physiol. 1994, 267:H1507-H1513). […] The temporally consecutive fluorescent images were analyzed offline using NIH Image Analysis software. The average fluorescence intensity was determined for each image, and used to calculate the mean residence time for each region, the overall lymph fluid velocity in the tail lymphatic network, and the mean LV diameter.

[2] = set-up: species or system C57BL/6 mice; details: mouse, in vivo
Experimental: 8 week old, female C57BL/6 mice were weighed and anesthetized (90 mg/kg Ketamine and 9 mg/kg Xylazine). Mean arterial pressure (MAP) was measured by cannulating the exposed left carotid artery with a PE-10 intravascular polyethylene catheter, connected to a pressure transducer (Gould Inc, Valley View, Ohio).

[3] = 3 days of treatment, not ligated, mean±SE
[4] = after ligation of the collecting lymphatics, 3 days of treatment, mean±SE

MAP (mean arterial pressure) [2] | Structure (SMILES) | decrease of overall lymphatic fluid velocity compared to controls that had received D-NMMA ([1]; 3 days of L-NMMA treatment, not ligated) | overall lymphatic fluid velocity in the dermal lymphatic network ([1]; 3 days of treatment, mean±SE) | injection rate of the fluorescent tracer into the interstitium [1, 3] | mean lymphatic vessel diameter [1, 3] | injection rate [1, 4] | mean lymphatic vessel diameter [1, 4] | lymphatic fluid velocity compared with controls treated with D-NMMA or AP (FIG. 2A) ([1]; not ligated, result in words) | mean lymphatic vessel diameter compared with controls (FIG. 2C) ([1]; not ligated, result in words)
71.7±1.4 mmHg | CNC(=N)NCCC[C@H](N)C(=O)O [L-NMMA, NG-monomethyl-L-arginine] | 42% | 5.1±0.6 μm/s | 11.3 ± 1.2 nL/min | 61.5±0.7 μm | 25.0 ± 1.3 nL/min | 77.2±2.1 μm | significantly lower | not different
 | CN=C(N)NCCC[C@@H](N)C(=O)O [D-NMMA] |  | 8.7±0.4 μm/s | 15.7 ± 1.5 nL/min | 61.6±1.6 μm |  |  |  | 
